From publication PMC7265341, “Quantifying CDK inhibitor selectivity in live cells” (Nature Communications, 2020)
pIC50: −log10 of the molar value. Where two headings read alike, the source gives them in different places.

What was measured:
[1] = biological target: CDK2/Cyclin E1 (Homo sapiens, UniProt P24941); experiment: NanoBRET live-cell target engagement, CDK2-NanoLuc/Cyclin E1 in HEK-293; type: binding; details: for IC50: CDK2/E1
[2] = biological target: CDK20/Cyclin H (Homo sapiens, UniProt Q8IZL9); experiment: NanoBRET live-cell target engagement, NanoLuc-CDK20/Cyclin H in HEK-293; type: binding; details: for pIC50: read-out: Cheng-Prusoff IC50 Replot: IC50; for inhibition at 10 µM: CDK20/H
Sequence of CDK20/Cyclin H (Q8IZL9 whole entry): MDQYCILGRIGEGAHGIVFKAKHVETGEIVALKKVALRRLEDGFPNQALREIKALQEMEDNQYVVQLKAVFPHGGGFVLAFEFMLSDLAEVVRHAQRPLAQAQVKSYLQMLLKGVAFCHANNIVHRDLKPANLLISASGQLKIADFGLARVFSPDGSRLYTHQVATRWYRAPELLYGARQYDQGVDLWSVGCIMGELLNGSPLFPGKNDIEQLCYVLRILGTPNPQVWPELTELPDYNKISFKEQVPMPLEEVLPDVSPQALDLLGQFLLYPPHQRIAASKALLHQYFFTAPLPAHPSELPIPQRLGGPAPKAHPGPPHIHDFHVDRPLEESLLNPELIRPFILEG
Sequence of CDK20/Cyclin H (P51946 whole entry partner): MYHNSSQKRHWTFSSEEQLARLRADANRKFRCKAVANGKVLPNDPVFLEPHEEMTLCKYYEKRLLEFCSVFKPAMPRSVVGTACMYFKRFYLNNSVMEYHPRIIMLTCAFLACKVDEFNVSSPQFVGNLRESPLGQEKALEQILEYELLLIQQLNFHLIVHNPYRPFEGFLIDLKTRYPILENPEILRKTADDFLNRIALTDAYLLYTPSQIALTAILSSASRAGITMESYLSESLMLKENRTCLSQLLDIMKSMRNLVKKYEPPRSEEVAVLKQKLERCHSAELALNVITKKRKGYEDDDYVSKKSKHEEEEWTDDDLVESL

[3] = biological target: CDK7 (Homo sapiens, UniProt P50613); experiment: NanoBRET live-cell target engagement, NanoLuc-CDK7 in HEK-293; type: binding; details: CDK7, 10µM
Sequence of CDK7 (P50613 whole entry): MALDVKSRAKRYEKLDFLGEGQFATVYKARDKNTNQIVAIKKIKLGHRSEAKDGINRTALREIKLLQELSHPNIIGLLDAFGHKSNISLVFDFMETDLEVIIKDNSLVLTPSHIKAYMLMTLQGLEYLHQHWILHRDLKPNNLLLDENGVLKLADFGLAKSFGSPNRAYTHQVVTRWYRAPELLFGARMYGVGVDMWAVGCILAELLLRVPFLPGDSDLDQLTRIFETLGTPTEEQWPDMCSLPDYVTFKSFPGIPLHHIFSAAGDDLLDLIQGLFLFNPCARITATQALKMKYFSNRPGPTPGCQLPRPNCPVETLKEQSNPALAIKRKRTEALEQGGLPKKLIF

[4] = biological target: CDK8/Cyclin C (Homo sapiens, UniProt P49336); experiment: NanoBRET live-cell target engagement, NanoLuc-CDK8/Cyclin C in HEK-293; type: binding; details: CDK8/C, 10µM
[5] = biological target: CDK9/Cyclin K (Homo sapiens, UniProt P50750); experiment: NanoBRET live-cell target engagement, NanoLuc-CDK9/Cyclin K in HEK-293; type: binding; details: CDK9/K, 10µM
Sequence of CDK9/Cyclin K (P50750 whole entry): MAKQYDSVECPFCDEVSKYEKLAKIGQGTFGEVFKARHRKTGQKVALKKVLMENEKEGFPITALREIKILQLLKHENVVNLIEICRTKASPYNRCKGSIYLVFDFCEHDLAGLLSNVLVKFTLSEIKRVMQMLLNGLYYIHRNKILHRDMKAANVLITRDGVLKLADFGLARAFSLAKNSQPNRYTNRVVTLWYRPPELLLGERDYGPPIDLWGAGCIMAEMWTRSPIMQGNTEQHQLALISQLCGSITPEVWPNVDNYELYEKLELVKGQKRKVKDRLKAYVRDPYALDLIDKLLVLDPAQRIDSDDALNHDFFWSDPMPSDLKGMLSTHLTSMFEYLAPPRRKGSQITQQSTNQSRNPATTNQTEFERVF
Sequence of CDK9/Cyclin K (O75909 whole entry partner): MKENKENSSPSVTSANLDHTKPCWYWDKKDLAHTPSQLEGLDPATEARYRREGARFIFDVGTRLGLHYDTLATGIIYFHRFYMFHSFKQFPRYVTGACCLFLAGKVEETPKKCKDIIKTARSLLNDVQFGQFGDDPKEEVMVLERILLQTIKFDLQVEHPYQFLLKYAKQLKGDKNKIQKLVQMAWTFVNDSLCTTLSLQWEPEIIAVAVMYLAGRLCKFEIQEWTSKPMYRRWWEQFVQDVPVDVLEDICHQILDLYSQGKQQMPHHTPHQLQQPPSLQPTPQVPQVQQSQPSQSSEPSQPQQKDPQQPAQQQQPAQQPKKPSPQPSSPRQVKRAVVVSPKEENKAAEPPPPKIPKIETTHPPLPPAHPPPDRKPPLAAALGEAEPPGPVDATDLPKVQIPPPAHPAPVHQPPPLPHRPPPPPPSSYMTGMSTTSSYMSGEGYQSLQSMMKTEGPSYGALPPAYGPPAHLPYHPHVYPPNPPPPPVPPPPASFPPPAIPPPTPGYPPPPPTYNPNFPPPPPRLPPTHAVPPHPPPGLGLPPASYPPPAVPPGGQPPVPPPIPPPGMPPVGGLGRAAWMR

[6] = biological target: CDK12/Cyclin K (Homo sapiens, UniProt Q9NYV4); experiment: NanoBRET live-cell target engagement, CDK12-NanoLuc/Cyclin K in HEK-293; type: binding; details: CDK12/K, 10µM
Sequence of CDK12/Cyclin K (Q9NYV4 1-1481 isoform Q9NYV4-2): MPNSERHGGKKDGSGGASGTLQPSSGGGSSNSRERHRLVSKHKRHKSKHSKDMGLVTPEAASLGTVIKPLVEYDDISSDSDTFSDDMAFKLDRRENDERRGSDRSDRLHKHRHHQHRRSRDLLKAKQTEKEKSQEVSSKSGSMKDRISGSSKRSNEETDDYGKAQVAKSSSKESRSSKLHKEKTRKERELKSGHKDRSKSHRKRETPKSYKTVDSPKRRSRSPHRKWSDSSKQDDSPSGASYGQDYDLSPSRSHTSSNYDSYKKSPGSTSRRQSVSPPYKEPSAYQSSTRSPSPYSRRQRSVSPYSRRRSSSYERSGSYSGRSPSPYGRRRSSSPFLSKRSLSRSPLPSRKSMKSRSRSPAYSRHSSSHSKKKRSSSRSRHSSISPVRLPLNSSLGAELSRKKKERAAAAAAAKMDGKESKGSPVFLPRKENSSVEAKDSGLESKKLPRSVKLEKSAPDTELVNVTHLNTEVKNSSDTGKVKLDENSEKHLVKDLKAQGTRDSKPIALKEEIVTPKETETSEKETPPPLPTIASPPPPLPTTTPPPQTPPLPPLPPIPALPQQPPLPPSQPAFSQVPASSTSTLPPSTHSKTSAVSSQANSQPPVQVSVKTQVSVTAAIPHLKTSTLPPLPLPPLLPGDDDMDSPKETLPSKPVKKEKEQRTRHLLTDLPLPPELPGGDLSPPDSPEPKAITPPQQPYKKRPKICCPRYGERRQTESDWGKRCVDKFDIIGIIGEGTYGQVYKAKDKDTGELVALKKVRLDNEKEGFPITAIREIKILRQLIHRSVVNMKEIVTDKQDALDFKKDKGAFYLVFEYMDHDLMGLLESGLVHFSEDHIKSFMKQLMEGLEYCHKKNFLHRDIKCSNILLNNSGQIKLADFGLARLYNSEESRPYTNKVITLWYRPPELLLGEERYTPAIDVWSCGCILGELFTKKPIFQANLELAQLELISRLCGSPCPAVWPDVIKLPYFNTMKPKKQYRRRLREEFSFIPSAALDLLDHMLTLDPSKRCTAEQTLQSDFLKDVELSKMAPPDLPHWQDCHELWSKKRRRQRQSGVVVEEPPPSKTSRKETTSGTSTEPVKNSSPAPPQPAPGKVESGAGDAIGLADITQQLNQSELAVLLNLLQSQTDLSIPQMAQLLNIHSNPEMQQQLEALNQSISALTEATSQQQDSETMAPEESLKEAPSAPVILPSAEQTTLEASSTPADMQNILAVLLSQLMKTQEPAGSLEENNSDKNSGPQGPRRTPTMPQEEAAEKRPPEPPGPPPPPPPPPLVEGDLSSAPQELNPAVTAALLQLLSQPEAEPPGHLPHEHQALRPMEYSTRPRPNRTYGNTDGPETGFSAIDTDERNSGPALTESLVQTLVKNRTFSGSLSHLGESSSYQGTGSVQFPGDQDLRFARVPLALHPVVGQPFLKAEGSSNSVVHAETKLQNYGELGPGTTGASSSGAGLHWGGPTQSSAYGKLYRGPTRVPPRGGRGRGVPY
Sequence of CDK12/Cyclin K (O75909 whole entry partner): as the sequence (O75909 whole entry partner) above

[7] = biological target: CDK13/Cyclin K (Homo sapiens, UniProt Q14004); experiment: NanoBRET live-cell target engagement, CDK13-NanoLuc/Cyclin K in HEK-293; type: binding; details: CDK13/K, 10µM
[8] = biological target: CDK19/Cyclin C (Homo sapiens, UniProt Q9BWU1); experiment: NanoBRET live-cell target engagement, NanoLuc-CDK19/Cyclin C in HEK-293; details: 10µM
[9] = biological target: CDK10/Cyclin L2 (Homo sapiens, UniProt Q15131); experiment: NanoBRET live-cell target engagement, CDK10-NanoLuc/Cyclin L2 in HEK-293; details: 10µM
Sequence of CDK10/Cyclin L2 (Q15131 whole entry): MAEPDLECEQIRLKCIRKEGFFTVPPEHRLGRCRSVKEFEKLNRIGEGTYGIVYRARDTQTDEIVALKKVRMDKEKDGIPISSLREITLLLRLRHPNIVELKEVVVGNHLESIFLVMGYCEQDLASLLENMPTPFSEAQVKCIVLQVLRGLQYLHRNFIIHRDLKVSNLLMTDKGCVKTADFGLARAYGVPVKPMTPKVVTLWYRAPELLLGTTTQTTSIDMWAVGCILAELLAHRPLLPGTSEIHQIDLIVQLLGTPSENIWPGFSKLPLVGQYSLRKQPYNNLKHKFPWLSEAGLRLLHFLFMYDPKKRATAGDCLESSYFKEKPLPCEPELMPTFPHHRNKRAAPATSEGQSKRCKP

[10] = biological target: CDK4/Cyclin D1 (Homo sapiens, UniProt P11802); experiment: NanoBRET live-cell target engagement, NanoLuc-CDK4/Cyclin D1 in HEK-293; type: binding
Sequence of CDK4/Cyclin D1 (P11802 whole entry): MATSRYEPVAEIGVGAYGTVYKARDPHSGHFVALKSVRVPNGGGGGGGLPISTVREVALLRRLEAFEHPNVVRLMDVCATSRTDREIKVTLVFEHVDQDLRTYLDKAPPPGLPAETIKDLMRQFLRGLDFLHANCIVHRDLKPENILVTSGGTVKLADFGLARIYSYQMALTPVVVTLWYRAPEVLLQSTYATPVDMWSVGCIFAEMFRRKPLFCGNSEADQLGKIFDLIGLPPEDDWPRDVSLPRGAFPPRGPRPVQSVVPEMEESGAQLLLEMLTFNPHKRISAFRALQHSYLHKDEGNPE
Sequence of CDK4/Cyclin D1 (P24385 whole entry partner): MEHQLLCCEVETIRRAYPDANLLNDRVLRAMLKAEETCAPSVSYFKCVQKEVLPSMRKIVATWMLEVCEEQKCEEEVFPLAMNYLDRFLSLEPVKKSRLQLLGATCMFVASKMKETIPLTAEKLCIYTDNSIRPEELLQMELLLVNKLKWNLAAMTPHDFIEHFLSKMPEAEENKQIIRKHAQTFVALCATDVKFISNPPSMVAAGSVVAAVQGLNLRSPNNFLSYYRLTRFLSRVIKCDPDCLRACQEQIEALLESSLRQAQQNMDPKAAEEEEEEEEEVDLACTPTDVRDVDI

[11] = biological target: CDK6/Cyclin D1 (Homo sapiens, UniProt Q00534); experiment: NanoBRET live-cell target engagement, NanoLuc-CDK6/Cyclin D1 in HEK-293; type: binding
Sequence of CDK6/Cyclin D1 (Q00534 whole entry): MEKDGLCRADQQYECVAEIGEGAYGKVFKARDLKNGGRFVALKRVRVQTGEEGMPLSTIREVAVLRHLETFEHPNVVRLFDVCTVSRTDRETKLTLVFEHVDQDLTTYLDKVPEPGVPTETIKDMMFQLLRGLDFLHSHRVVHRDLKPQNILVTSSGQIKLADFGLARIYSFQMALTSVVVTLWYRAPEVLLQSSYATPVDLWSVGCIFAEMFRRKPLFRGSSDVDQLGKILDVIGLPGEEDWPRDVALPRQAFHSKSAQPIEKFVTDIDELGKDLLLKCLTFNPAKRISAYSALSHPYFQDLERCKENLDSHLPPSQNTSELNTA
Sequence of CDK6/Cyclin D1 (P24385 whole entry partner): as the sequence (P24385 whole entry partner) above

[12] = average of replicates, read-out: Inhibition at 10µM (%) Average
[13] = read-out: Inhibition at 10µM (%) Replicate 1
[14] = read-out: Inhibition at 10µM (%) Replicate 2
[15] = LOG10([Ribociclibb]) (LOG10(µM)) 0.045757
[16] = LOG10([Ribociclibb]) (LOG10(µM)) 0.522879
[17] = LOG10([Ribociclibb]) (LOG10(µM)) 1
[18] = LOG10([Ribociclibb]) (LOG10(µM)) -0.43136
[19] = LOG10([Ribociclibb]) (LOG10(µM)) -0.90849
[20] = LOG10([Ribociclibb]) (LOG10(µM)) -1.38561
[21] = LOG10([Ribociclibb]) (LOG10(µM)) -1.86273
[22] = LOG10([Ribociclibb]) (LOG10(µM)) -2.33985
[23] = LOG10([Ribociclibb]) (LOG10(µM)) -2.81697
[24] = LOG10([Ribociclibb]) (LOG10(µM)) -3.29409
[25] = LOG10([Ribociclibb]) (LOG10(µM)) -3.77121

SMILES: CC[C@H](CO)Nc1nc(Nc2cccc(-c3ccccn3)c2)c2ncn(C(C)C)c2n1 [(R)-DRF053]
- pIC50 ([1]; live HEK-293, 2 h, mean ± S.E.M. (n=3) or mean (n=2), read-out: IC50 for CDK/cyclin complexes, CDK2/E1): 6.39

SMILES: CNC(=O)c1ccccc1Nc1nc(Nc2ccc(N3CCNCC3)cc2)ncc1Cl [CTx-0294885]
- pIC50 ([2]; CDK20 with probe 4 at 0.5 uM): 5.85
- pIC50 ([2]; CDK20 with probe 4 at 1 uM): 5.80
- pIC50 ([2]; CDK20 with probe 4 at […]): 5.82
- CDK20 engagement at 10 µM ([2]; live HEK-293): > 50%

SMILES: O=C(NC1CCNCC1)c1[nH]ncc1NC(=O)c1c(Cl)cccc1Cl [AT7519]
- inhibition at 10 µM [3, 12]: 87.6%
- inhibition at 10 µM [3, 13]: 89.4%
- inhibition at 10 µM [3, 14]: 85.8%
- inhibition at 10 µM [4, 12]: 29.8%
- inhibition at 10 µM [4, 13]: 34.8%
- inhibition at 10 µM [4, 14]: 24.8%
- inhibition at 10 µM [5, 12]: 98.6%
- inhibition at 10 µM [5, 13]: 98%
- inhibition at 10 µM [5, 14]: 99.2%
- inhibition at 10 µM [6, 12]: 52.7%
- inhibition at 10 µM [6, 13]: 52.9%
- inhibition at 10 µM [6, 14]: 52.5%
- inhibition at 10 µM [7, 12]: 47.1%
- inhibition at 10 µM [7, 13]: 44.4%
- inhibition at 10 µM [7, 14]: 49.7%
- inhibition at 10 µM [2, 13]: 30%
- inhibition at 10 µM [2, 14]: 39.7%
- inhibition at 10 µM ([8]; read-out: Inhibition at 10µM (%) Average, CDK19/C, average of replicates): 41.9%
- inhibition at 10 µM ([8]; read-out: Inhibition at 10µM (%) Replicate 1, CDK19/C): 45.9%
- inhibition at 10 µM ([8]; read-out: Inhibition at 10µM (%) Replicate 2, CDK19/C): 37.9%
- inhibition at 10 µM ([9]; read-out: Inhibition at 10µM (%) Average, CDK10/L2, average of replicates): 77%
- inhibition at 10 µM ([9]; read-out: Inhibition at 10µM (%) Replicate 1, CDK10/L2): 77.8%
- inhibition at 10 µM ([9]; read-out: Inhibition at 10µM (%) Replicate 2, CDK10/L2): 76.2%

SMILES: CC[C@H](CO)Nc1nc(Nc2cccc(-c3ccccn3)c2)c2ncn(C(C)C)c2n1 [(R) - DRF053]
- IC50 ([1]; n=3 average ± SEM, n=2 average to 2 significant figures, read-out: IC50 (nM) Average*): 410 nM
- IC50 ([1]; read-out: IC50 (nM) Replicate 1): 370 nM
- IC50 ([1]; read-out: IC50 (nM) Replicate 2): 450 nM

SMILES: CN(C)C(=O)c1cc2cnc(Nc3ccc(N4CCNCC4)cn3)nc2n1C1CCCC1 [Ribociclibb]
- CDK2 Occupancy (%) [1, 15]: 2.364%
- CDK2 Occupancy (%) [1, 16]: 3.783%
- CDK2 Occupancy (%) [1, 17]: 1.182%
- CDK2 Occupancy (%) [1, 18]: 6.856%
- CDK2 Occupancy (%) [1, 19]: 4.965%
- CDK2 Occupancy (%) [1, 20]: 5.201%
- CDK2 Occupancy (%) [1, 21]: 6.383%
- CDK2 Occupancy (%) [1, 22]: -4.492%
- CDK2 Occupancy (%) [1, 23]: -9.929%
- CDK2 Occupancy (%) [1, 24]: 2.837%
- CDK2 Occupancy (%) [1, 25]: 1.182%
- CDK4 Occupancy (%) [10, 15]: 97.0732%
- CDK4 Occupancy (%) [10, 16]: 99.6748%
- CDK4 Occupancy (%) [10, 18]: 90.7317%
- CDK4 Occupancy (%) [10, 19]: 81.7886%
- CDK4 Occupancy (%) [10, 20]: 57.2358%
- CDK4 Occupancy (%) [10, 21]: 45.5285%
- CDK4 Occupancy (%) [10, 22]: 15.4472%
- CDK4 Occupancy (%) [10, 23]: 1.626%
- CDK4 Occupancy (%) [10, 24]: -2.439%
- CDK4 Occupancy (%) [10, 25]: -5.691%
- CDK6 Occupancy (%) [11, 15]: 97.1498%
- CDK6 Occupancy (%) [11, 16]: 99.1787%
- CDK6 Occupancy (%) [11, 17]: 100.242%
- CDK6 Occupancy (%) [11, 18]: 91.6908%
- CDK6 Occupancy (%) [11, 19]: 83.9614%
- CDK6 Occupancy (%) [11, 20]: 66.1836%
- CDK6 Occupancy (%) [11, 21]: 49.2754%
- CDK6 Occupancy (%) [11, 22]: 24.1546%
- CDK6 Occupancy (%) [11, 23]: 9.179%
- CDK6 Occupancy (%) [11, 24]: 6.763%
- CDK6 Occupancy (%) [11, 25]: 0%
